Source: PubChem BioAssay (NCI)
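Each compound was tested at five concentrations against cells in 96-well plates for 48 hours. TGI denotes the concentration required for complete inhibition of growth.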

Key:
Experiment in all cases: DTP human tumour cell line panel, 48 h
A498 renal = tested on: A498 renal
A549 NSCLC = tested on: A549 NSCLC
ACHN renal = tested on: ACHN renal
CCRF-CEM leukemia = tested on: CCRF-CEM leukemia
COLO 205 colon = tested on: COLO 205 colon
DU-145 prostate = tested on: DU-145 prostate
EKVX NSCLC = tested on: EKVX NSCLC
HCT-116 colon = tested on: HCT-116 colon
HCT-15 colon = tested on: HCT-15 colon
HL-60(TB) leukemia = tested on: HL-60(TB) leukemia
HT29 colon = tested on: HT29 colon
IGROV1 ovarian = tested on: IGROV1 ovarian
K-562 leukemia = tested on: K-562 leukemia
KM12 colon = tested on: KM12 colon
LOX IMVI melanoma = tested on: LOX IMVI melanoma
M14 melanoma = tested on: M14 melanoma
MALME-3M melanoma = tested on: MALME-3M melanoma
MCF7 breast = tested on: MCF7 breast
MDA-MB-231 breast = tested on: MDA-MB-231 breast
MDA-MB-435 = tested on: MDA-MB-435
MDA-N = tested on: MDA-N
MOLT-4 leukemia = tested on: MOLT-4 leukemia
NCI-H226 lung = tested on: NCI-H226 lung
NCI-H23 lung = tested on: NCI-H23 lung
NCI-H460 lung = tested on: NCI-H460 lung
NCI-H522 lung = tested on: NCI-H522 lung
NCI/ADR-RES ovarian = tested on: NCI/ADR-RES ovarian
OVCAR-3 ovarian = tested on: OVCAR-3 ovarian
OVCAR-4 ovarian = tested on: OVCAR-4 ovarian
OVCAR-5 ovarian = tested on: OVCAR-5 ovarian
OVCAR-8 ovarian = tested on: OVCAR-8 ovarian
PC-3 prostate = tested on: PC-3 prostate
RPMI-8226 leukemia = tested on: RPMI-8226 leukemia
RXF 393 renal = tested on: RXF 393 renal
SF-268 CNS = tested on: SF-268 CNS
SF-295 CNS = tested on: SF-295 CNS
SF-539 CNS = tested on: SF-539 CNS
SK-MEL-2 melanoma = tested on: SK-MEL-2 melanoma
SK-MEL-28 melanoma = tested on: SK-MEL-28 melanoma
SK-MEL-5 melanoma = tested on: SK-MEL-5 melanoma
SK-OV-3 ovarian = tested on: SK-OV-3 ovarian
SN12C renal = tested on: SN12C renal
SNB-19 CNS = tested on: SNB-19 CNS
SNB-75 CNS = tested on: SNB-75 CNS
SR leukemia = tested on: SR leukemia
SW-620 colon = tested on: SW-620 colon
T-47D breast = tested on: T-47D breast
TK-10 renal = tested on: TK-10 renal
U251 CNS = tested on: U251 CNS
UACC-257 melanoma = tested on: UACC-257 melanoma
UACC-62 melanoma = tested on: UACC-62 melanoma
UO-31 renal = tested on: UO-31 renal

COC1=CC(=O)c2c(cc(COP(N)(=O)N(CCBr)CCBr)n2C)C1=O (configuration not stated)
TGI (A498 renal): 2880 nM
TGI (A549 NSCLC): 1710 nM
TGI (ACHN renal): 21.9 nM
TGI (CCRF-CEM leukemia): 771 nM
TGI (COLO 205 colon): 144 nM
TGI (DU-145 prostate): 1410 nM
TGI (EKVX NSCLC): 207 nM
TGI (HCT-116 colon): 131 nM
TGI (HCT-15 colon): 2500 nM
TGI (HL-60(TB) leukemia): 3640 nM
TGI (HT29 colon): 1050 nM
TGI (IGROV1 ovarian): 2800 nM
TGI (K-562 leukemia): > 100000 nM
TGI (KM12 colon): 4720 nM
TGI (LOX IMVI melanoma): 121 nM
TGI (M14 melanoma): 633 nM
TGI (MALME-3M melanoma): 1860 nM
TGI (MCF7 breast): 16100 nM
TGI (MDA-MB-231 breast): 7100 nM
TGI (MDA-MB-435): 2420 nM
TGI (MDA-N): 2240 nM
TGI (MOLT-4 leukemia): > 100000 nM
TGI (NCI-H226 lung): 1170 nM
TGI (NCI-H23 lung): 2670 nM
TGI (NCI-H460 lung): 5380 nM
TGI (NCI-H522 lung): 188 nM
TGI (NCI/ADR-RES ovarian): 7860 nM
TGI (OVCAR-3 ovarian): 651 nM
TGI (OVCAR-4 ovarian): 10500 nM
TGI (OVCAR-5 ovarian): 1060 nM
TGI (OVCAR-8 ovarian): 1200 nM
TGI (PC-3 prostate): 4620 nM
TGI (RPMI-8226 leukemia): 1160 nM
TGI (RXF 393 renal): 1490 nM
TGI (SF-268 CNS): 1800 nM
TGI (SF-295 CNS): 225 nM
TGI (SF-539 CNS): 133 nM
TGI (SK-MEL-2 melanoma): 3570 nM
TGI (SK-MEL-28 melanoma): 3100 nM
TGI (SK-MEL-5 melanoma): 2200 nM
TGI (SK-OV-3 ovarian): 1150 nM
TGI (SN12C renal): 1080 nM
TGI (SNB-19 CNS): 8280 nM
TGI (SNB-75 CNS): 1190 nM
TGI (SR leukemia): 1600 nM
TGI (SW-620 colon): 1480 nM
TGI (T-47D breast): 2980 nM
TGI (TK-10 renal): 3430 nM
TGI (U251 CNS): 859 nM
TGI (UACC-257 melanoma): 4440 nM
TGI (UACC-62 melanoma): 1470 nM
TGI (UO-31 renal): 3660 nM
